Tests used:
[1] = per os administration; cited from earlier work
[2] = molecular target: intraspinal kappa receptors (Rattus norvegicus, UniProt P34975); settings: after spinal cord injury; Bakshi et al.; cited from earlier work
[3] = molecular target: kappa-receptor (Homo sapiens, UniProt P41145); settings: Kreek et al.; cited from earlier work
[4] = cited from earlier work
[5] = Expected serum concentration after intranasal nalmefene spray (10 mg/ml solution, 0.1 ml per spray); type: in vivo, human
Experimental: A tartrate, stearate or palmitate formulation of nalmefene may be used, or nalmefene may be in the form of nalmefene hydrochloride, and formulated such that 1 gram of active nalmefene is mixed with 80 ml of distilled water, then adjusted to a pH of approximately 7.4 with dilute sodium hydroxide, and then isotonic saline is added along with a suitable preservative and antibacterial agent, to yield a total volume of 100 ml. This yields a nalmefene solution with a concentration of 10 mg/ml nalmefene. This final solution is passed through a 0.2 micron Millipor filter to remove bacteria and other undesired particles. The filtered solution is then placed aseptically into a container to which is then attached a metered dosing mechanism which allows approximately 0.1 ml to be delivered in each spray. An example of such a metered dosing system in found with the commercially marketed Stadol NS® (Bristol-Myers Squibb Co.). One spray to one nostril may be expected to yield a blood serum concentration of approximately 1 ng/ml 30-90 minutes after administration. […] Alternatively, the human may be given a loading dose of intravenous nalmefene and then transferred to a nasal administration regimen. A practical dosing schedule for nalmefene may be 1.5 mg intranasally every 12 hours. […]

[6] = single dose after acute spinal cord injury; Behrmann et al.; cited from earlier work

Chain of kappa-receptor (P41145 whole entry): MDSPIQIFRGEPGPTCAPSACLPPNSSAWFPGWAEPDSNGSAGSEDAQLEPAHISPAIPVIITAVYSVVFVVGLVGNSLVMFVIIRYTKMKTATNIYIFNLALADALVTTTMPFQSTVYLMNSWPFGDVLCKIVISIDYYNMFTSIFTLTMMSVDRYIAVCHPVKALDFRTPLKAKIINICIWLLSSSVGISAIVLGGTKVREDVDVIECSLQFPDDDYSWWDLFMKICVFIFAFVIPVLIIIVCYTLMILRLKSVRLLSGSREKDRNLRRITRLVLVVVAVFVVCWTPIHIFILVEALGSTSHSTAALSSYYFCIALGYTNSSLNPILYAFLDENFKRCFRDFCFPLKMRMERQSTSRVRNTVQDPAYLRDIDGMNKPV
Chain of intraspinal kappa receptors (P34975 whole entry): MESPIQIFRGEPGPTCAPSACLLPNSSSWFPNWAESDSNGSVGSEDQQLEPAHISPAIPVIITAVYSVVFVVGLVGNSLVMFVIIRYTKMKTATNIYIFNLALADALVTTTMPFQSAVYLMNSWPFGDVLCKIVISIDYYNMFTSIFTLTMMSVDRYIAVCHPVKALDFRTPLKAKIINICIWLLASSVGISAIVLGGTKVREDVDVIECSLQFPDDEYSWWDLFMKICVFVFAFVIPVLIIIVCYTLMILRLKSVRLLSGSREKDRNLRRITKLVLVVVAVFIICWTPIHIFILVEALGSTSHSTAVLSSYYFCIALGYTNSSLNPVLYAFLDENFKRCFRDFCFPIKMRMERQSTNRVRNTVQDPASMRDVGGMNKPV

Row | SMILES | first pass metabolism [1] | effect on dynorphin induced motor dysfunction [2] | potency as kappa-receptor antagonist compared with other antagonists [3] | average volume of distribution (Vd) ([4]; approximate average in non-elderly adult humans) [L/kg] | serum half life ([4]; in vivo) | elimination constant (Ke) ([4]; value furnished by a distributor of nalmefene) [h⁻¹] | steady state serum concentration ([5]; 5 consecutive 1 mg intranasal doses approximately 11 hours apart) | blood serum concentration after one spray ([5]; one 0.1 ml spray of 10 mg/ml solution to one nostril, 30-90 minutes after administration) | effect on neurological recovery / neuroprotection [6]
1 | O=C1CC[C@@]2(O)[C@H]3Cc4ccc(O)c5c4[C@@]2(CCN3CC2CC2)[C@H]1O5 [naltrexone] | very significant first pass metabolism | – | – | – | – | – | – | – | –
2 | C=C1CC[C@@]2(O)[C@H]3Cc4ccc(O)c5c4[C@@]2(CCN3CC2CC2)[C@H]1O5 [nalmefene] | very significant first pass metabolism | limits dynorphin induced motor dysfunction | more potent than either naloxone or naltrexone | ~8.6 | approximately 10.8 hours | 0.0642 | approximately 1 ng/ml | approximately 1 ng/ml | significant neuroprotective effect

Reference: patent publication US6569866B2, “Sustained-release nalmefene preparations and method” (priority 1996, dated 2003)
